Results: patent US8178659B2, “Targets for the identification of antibiotics that are not susceptible to antibiotic resistance” (priority 2005, dated 2012)
Values after ≈ are worked out from the molar mass of the structure shown.

Tested on: E. coli DH5 cells
Test: Minimum inhibitory concentration (MIC) of chloramphenicol in the specialized ribosome (CAT reporter) system
Type: cell-based
Settings: Escherichia coli, DH5CELLS
Description: To examine the role of potential interactions within the 530 loop (FIG. 3.1) nucleotides involved in the proposed interactions were randomly mutated using PCR and cloned into pRNA16ST, a derivative of pRNA122 (Lee et al., 1996; Lee et al., 1997). pRNA 16ST contains only the 16 S rRNA from the rrnB operon rather then the entire operon. […] In this specialized in vivo system, the chloramphenicol acetyltransferase (CAT) reporter message is translated exclusively by plasmid-derived ribosomes that cannot translate normal cellular messages (Lee et al., 1996; Lee et al., 1997). Thus, the minimal inhibitory concentration (MIC) of chloramphenicol for each mutant is correlated to the level of function of the plasmid-derived ribosomes. This allows for the selection of functional mutants on chloramphenicol containing media. Survivors were then sequenced and assayed for function by determining the MIC for each mutant.
Minimum inhibitory concentration (MIC). MICs were determined by standard methods in microtiter plates. Overnight cultures grown in LB-Ap100 were diluted and induced in the same medium containing 1 mM IPTG for two to three hours at 37° C. Approximately 10^4 induced cells were then added to wells containing LB-Ap100+IPTG (1 mM) and chloramphenicol at increasing concentrations.

SMILES: O=C(N[C@H](CO)[C@H](O)c1ccc([N+](=O)[O-])cc1)C(Cl)Cl [chloramphenicol]
- MIC (cells expressing wild-type ribosomes in the system (pRNA123)): 700 µg/mL (≈ 2170 µM)
- MIC (uninduced wild-type plasmid (pRNA228) as well as a lethal clone): 15 µg/mL (≈ 46.4 µM)
